Source: patent publication US11739101B2, “Bifunctional degraders of hematopoietic progenitor kinase and therapeutic uses thereof” (Nurix Therapeutics, Inc., priority 2020, dated 2023)

target: T1, HPK1 (Homo sapiens, UniProt Q92918); assay: HPK1 Cellular HiBiT Degradation Assay; type: cell-based; conditions: HiBiT-tagged HPK1 Jurkat cells, 24 hours, 10 uM to 0.1 nM; Dmax = 100 minus lowest % HPK1 remaining vs DMSO vehicle
T1 construct: A HiBiT tag was introduced by CRISPR on the N terminus of HPK1 in Jurkat cells; host or cells: Jurkat (ATCC TIB-152), monoclonal CRISPR HiBiT knock-in line
Protocol: HiBiT HPK1 Jurkat cell lines were used to evaluate the total protein levels of HPK1 in a robust human cellular high throughput format. The level of HPK1 remaining following treatment with HPK1 CTMs is reported as Dmax (maximum degradation) achieved at 24 hours when compared to vehicle treated controls. […] These decreases were not a result of cytotoxicity measured by a parallel viability assessment (CTG). See also Table 1.
A HiBiT tag was introduced by CRISPR on the N terminus of HPK1 in Jurkat cells (ATCC® TIB-152) to allow quantitation of HPK1 protein levels in a monoclonal human cell line. Cells were plated at 1×10^6 cells/mL, 30 uL/well (3×10^4 cells/well) in complete RPMI 1640 (10% heat inactivated FBS, 1% L-glutamine) in 384-well assay plates (Corning, cat. no. 3570). HPK1 chimeric targeting molecules (CTMs) were added in an 11-point dilution series (3.16-fold) with a final assay concentration range of 10 uM to 0.1 nM. The parental Jurkat cell line, with no HiBiT insertion, was included in the assay as a background control. Cells treated with a DMSO vehicle control were used to determine the maximum signal defining 100% HPK1 in the cell. Cells were incubated for 24 hours at 37° C./5% CO2. Following incubation, 30 uL of complete Nano-Glo HiBiT Lytic Detection Reagent (Promega cat. no. N3040) was added. Cells were incubated for 10 minutes at room temperature and luminescence was read on an EnVision plate reader (Perkin Elmer, 0.1 sec per well). Parallel plates were assessed for viability using Cell Titer Glo (Promega) and read on an EnVision plate reader to ensure results were not the effect of cytotoxicity. Percent HPK1 remaining per sample was calculated as follows: […]
% HPK1 remaining values were plotted as a function of compound concentration and curves were fit using the Prism (GraphPad) equation “log(inhibitor) vs response−Variable slope (four parameters)”. Dmax values were calculated by identifying the lowest % remaining and subtracting from 100. Dmax values are provided in Table 1, wherein A>65%, 45%≤B≤65% and C<45%.

T1 sequence (Q92918 whole entry): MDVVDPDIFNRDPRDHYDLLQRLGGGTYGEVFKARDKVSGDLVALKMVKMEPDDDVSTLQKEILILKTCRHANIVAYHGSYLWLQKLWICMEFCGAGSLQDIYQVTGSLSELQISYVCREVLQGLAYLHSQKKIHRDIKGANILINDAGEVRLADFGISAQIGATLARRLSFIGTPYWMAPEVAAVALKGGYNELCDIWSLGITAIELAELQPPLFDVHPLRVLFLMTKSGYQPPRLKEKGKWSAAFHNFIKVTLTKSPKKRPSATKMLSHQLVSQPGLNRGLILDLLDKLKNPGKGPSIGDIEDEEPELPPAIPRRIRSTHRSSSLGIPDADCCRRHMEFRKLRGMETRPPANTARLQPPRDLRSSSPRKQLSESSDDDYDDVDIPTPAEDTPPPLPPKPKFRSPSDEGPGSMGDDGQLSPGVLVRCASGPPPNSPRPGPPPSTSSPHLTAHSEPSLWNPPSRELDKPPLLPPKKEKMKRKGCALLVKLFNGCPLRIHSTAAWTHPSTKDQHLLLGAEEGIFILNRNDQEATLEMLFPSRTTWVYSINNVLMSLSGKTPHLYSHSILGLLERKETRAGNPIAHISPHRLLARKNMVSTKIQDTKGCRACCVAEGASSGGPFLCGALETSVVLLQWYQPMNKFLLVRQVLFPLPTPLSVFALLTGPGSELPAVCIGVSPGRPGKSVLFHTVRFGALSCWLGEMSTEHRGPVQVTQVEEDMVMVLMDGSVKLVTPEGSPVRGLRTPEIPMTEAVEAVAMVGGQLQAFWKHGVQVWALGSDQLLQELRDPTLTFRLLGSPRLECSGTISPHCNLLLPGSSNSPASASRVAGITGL

| Dmax | SMILES |
| --- | --- |
| < 45% | Cc1cc(F)c(Nc2nc(-c3ccc4c(c3)N([C@H]3C[C@@H](N5CCCCC5)C3)C(=O)C43CCN(C(=O)c4ccc(S(=O)(=O)N5CCN(c6ccc7c(c6)C(=O)N(C6CCC(=O)NC6=O)C7=O)CC5)cc4)CC3)cc3ncn(C(C)C)c23)cc1C(=O)NC(C)C (some centres unmarked) [Example 58, 5-[(6-{1′-[4-({4-[2-(2,6-dioxopiperidin-3-yl)-1,3-dioxo-2,3-dihydro-1H-isoindol-5-yl]piperazin-1-yl}sulfonyl)benzoyl]-2-oxo-1-[(1s,3s)-3-(piperidin-1-yl)cyclobutyl]-1,2-dihydrospiro[indole-3,4′-piperidin]-6-yl}-3-(propan-2-yl)-3H-imidazo[4,5-c]pyridin-4-yl)amino]-4-fluoro-2-methyl-N-(propan-2-yl)benzamide] |
| < 45% | Cc1cc(F)c(Nc2nc(-c3ccc4c(c3)N([C@H]3C[C@@H](N5CCCCC5)C3)C(=O)C43CCN(C(=O)CCCCCCCCCNc4cccc5c4C(=O)N(C4CCC(=O)NC4=O)C5=O)CC3)cc3ncn(C(C)C)c23)cc1C(=O)NC(C)C (some centres unmarked) [Example 1, 5-((6-(1′-(10-((2-(2,6-dioxopiperidin-3-yl)-1,3-dioxoisoindolin-4-yl)amino)decanoyl)-2-oxo-1-((1s,3s)-3-(piperidin-1-yl)cyclobutyl)spiro[indoline-3,4′-piperidin]-6-yl)-3-isopropyl-3H-imidazo[4,5-c]pyridin-4-yl)amino)-4-fluoro-N-isopropyl-2-methylbenzamide] |
| < 45% | Cc1cc(F)c(Nc2nc(-c3ccc4c(c3)N([C@H]3C[C@@H](N5CCCCC5)C3)C(=O)C43CCN(C(=O)CCCCCCCOc4cc(-c5scnc5C)ccc4CNC(=O)[C@@H]4C[C@@H](O)CN4C(=O)[C@@H](NC(=O)C4(F)CC4)C(C)(C)C)CC3)cc3ncn(C(C)C)c23)cc1C(=O)NC(C)C [Example 13, (2S,4R)—N-(2-((8-(6-(4-((2-fluoro-5-(isopropylcarbamoyl)-4-methylphenyl)amino)-3-isopropyl-3H-imidazo[4,5-c]pyridin-6-yl)-2-oxo-1-((1s,3s)-3-(piperidin-1-yl)cyclobutyl)spiro[indoline-3,4′-piperidin]-1′-yl)-8-oxooctyl)oxy)-4-(4-methylthiazol-5-yl)benzyl)-1-((S)-2-(1-fluorocyclopropane-1-carboxamido)-3,3-dimethylbutanoyl)-4-hydroxypyrrolidine-2-carboxamide] |
| 45 to 65% | Cc1cc(F)c(Nc2nc(-c3ccc4c(c3)N([C@H]3C[C@@H](N5CCCCC5)C3)C(=O)C43CCN(C(=O)[C@H]4CC[C@@H](C(=O)N5CCC(Nc6cccc7c6C(=O)N(C6CCC(=O)NC6=O)C7=O)CC5)CC4)CC3)cc3ncn(C(C)C)c23)cc1C(=O)NC(C)C (stereo partly drawn) [Example 50, 4-fluoro-2-methyl-5-[(6-{2-oxo-1-[(1s,3s)-3-(piperidin-1-yl)cyclobutyl]-1′-[(1S,4s)-4-[4-({2-[2,6-dioxopiperidin-3-yl]-1,3-dioxo-2,3-dihydro-1H-isoindol-4-yl}amino)piperidine-1-carbonyl]cyclohexanecarbonyl]-1,2-dihydrospiro[indole-3,4′-piperidin]-6-yl}-3-(propan-2-yl)-3H-imidazo[4,5-c]pyridin-4-yl)amino]-N-(propan-2-yl)benzamide] |
| 45 to 65% | Cc1cc(F)c(Nc2nc(-c3ccc4c(c3)N([C@H]3C[C@@H](N5CCCCC5)C3)C(=O)C43CCN(C(=O)c4ccc(C(=O)N5CCC(Cc6cccc7c6C(=O)N(C6CCC(=O)NC6=O)C7=O)CC5)cc4)CC3)cc3ncn(C(C)C)c23)cc1C(=O)NC(C)C (some centres unmarked) [Example 77, 5-{[6-(1′-{4-[4-({2-[2,6-dioxopiperidin-3-yl]-1,3-dioxo-2,3-dihydro-1H-isoindol-4-yl}methyl)piperidine-1-carbonyl]benzoyl}-2-oxo-1-[(1s,3s)-3-(piperidin-1-yl)cyclobutyl]-1,2-dihydrospiro[indole-3,4′-piperidin]-6-yl)-3-(propan-2-yl)-3H-imidazo[4,5-c]pyridin-4-yl]amino}-4-fluoro-2-methyl-N-(propan-2-yl)benzamide] |
| 45 to 65% | Cc1cc(F)c(Nc2nc(-c3ccc4c(c3)N([C@H]3C[C@@H](N5CCCCC5)C3)C(=O)C43CCN(C(=O)C4CCN(C(=O)C5CCN(c6ccc7c(c6)C(=O)N(C6CCC(=O)NC6=O)C7=O)CC5)C4)CC3)cc3ncn(C(C)C)c23)cc1C(=O)NC(C)C (some centres unmarked) [Example 40] |
| 45 to 65% | Cc1cc(F)c(Nc2nc(-c3ccc4c(c3)N([C@H]3C[C@@H](N5CCCCC5)C3)C(=O)C43CCN(C(=O)c4ccc(N(C)C5CCN(c6ccc7c(c6)C(=O)N(C6CCC(=O)NC6=O)C7=O)CC5)cc4)CC3)cc3ncn(C(C)C)c23)cc1C(=O)NC(C)C (some centres unmarked) [Example 97, 5-{[6-(1′-{4-[(1-{2-[2,6-dioxopiperidin-3-yl]-1,3-dioxoisoindol-5-yl}piperidin-4-yl)(methyl)amino]benzoyl}-2-oxo-1-[(1s,3s)-3-(piperidin-1-yl)cyclobutyl]spiro[indole-3,4′-piperidin]-6-yl)-3-isopropylimidazo[4,5-c]pyridin-4-yl]amino}-4-fluoro-N-isopropyl-2-methylbenzamide] |
| 45 to 65% | Cc1cc(F)c(Nc2nc(-c3ccc4c(c3)N([C@H]3C[C@@H](N5CCCCC5)C3)C(=O)C43CCN(C(=O)C4(C)CCN(C(=O)C5CCN(c6ccc7c(c6)C(=O)N(C6CCC(=O)NC6=O)C7=O)CC5)CC4)CC3)cc3ncn(C(C)C)c23)cc1C(=O)NC(C)C (some centres unmarked) [Example 74, 5-[(6-{1′-[1-(1-{2-[2,6-dioxopiperidin-3-yl]-1,3-dioxoisoindol-5-yl}piperidine-4-carbonyl)-4-methylpiperidine-4-carbonyl]-2-oxo-1-[(1s,3s)-3-(piperidin-1-yl)cyclobutyl]spiro[indole-3,4′-piperidin]-6-yl}-3-isopropylimidazo[4,5-c]pyridin-4-yl)amino]-4-fluoro-N-isopropyl-2-methylbenzamide] |
| 45 to 65% | Cc1cc(F)c(Nc2nc(-c3ccc4c(c3)N([C@H]3C[C@@H](N5CCCCC5)C3)C(=O)C43CCN(C(=O)[C@@H]4CCN(C(=O)[C@H]5CC[C@H](Nc6cccc7c6C(=O)N(C6CCC(=O)NC6=O)C7=O)CC5)C4)CC3)cc3ncn(C(C)C)c23)cc1C(=O)NC(C)C (stereo partly drawn) [Example 52, 4-fluoro-2-methyl-5-[(6-{2-oxo-1′-[(3R)-1-[(1R,4R)-4-({2-[2,6-dioxopiperidin-3-yl]-1,3-dioxo-2,3-dihydro-1H-isoindol-4-yl}amino)cyclohexanecarbonyl]pyrrolidine-3-carbonyl]-1-[(1s,3s)-3-(piperidin-1-yl)cyclobutyl]-1,2-dihydrospiro[indole-3,4′-piperidin]-6-yl}-3-(propan-2-yl)-3H-imidazo[4,5-c]pyridin-4-yl)amino]-N-(propan-2-yl)benzamide] |
| > 65% | Cc1cc(F)c(Nc2nc(-c3ccc4c(c3)N([C@H]3C[C@@H](N5CCCCC5)C3)C(=O)C43CCN(C(=O)[C@H]4CCN(C[C@H]5CC[C@H](Nc6cccc7c6C(=O)N(C6CCC(=O)NC6=O)C7=O)CC5)C4)CC3)cc3ncn(C(C)C)c23)cc1C(=O)NC(C)C (stereo partly drawn) [Example 73, 4-fluoro-2-methyl-5-[(6-{2-oxo-1′-[(3R)-1-{[(1R,4R)-4-({2-[2,6-dioxopiperidin-3-yl]-1,3-dioxo-2,3-dihydro-1H-isoindol-4-yl}amino)cyclohexyl]methyl}pyrrolidine-3-carbonyl]-1-[(1s,3s)-3-(piperidin-1-yl)cyclobutyl]-1,2-dihydrospiro[indole-3,4′-piperidin]-6-yl}-3-(propan-2-yl)-3H-imidazo[4,5-c]pyridin-4-yl)amino]-N-(propan-2-yl)benzamide] |
| 45 to 65% | Cc1cc(F)c(Nc2nc(-c3ccc4c(c3)N([C@H]3C[C@@H](N5CCCCC5)C3)C(=O)C43CCN(C(=O)C4CCN(C(=O)N5CCC(Nc6cccc7c6C(=O)N(C6CCC(=O)NC6=O)C7=O)CC5)CC4)CC3)cc3ncn(C(C)C)c23)cc1C(=O)NC(C)C (some centres unmarked) [Example 68, 5-{[6-(1′-{1-[4-({2-[2,6-dioxopiperidin-3-yl]-1,3-dioxo-2,3-dihydro-1H-isoindol-4-yl}amino)piperidine-1-carbonyl]piperidine-4-carbonyl}-2-oxo-1-[(1s,3s)-3-(piperidin-1-yl)cyclobutyl]-1,2-dihydrospiro[indole-3,4′-piperidin]-6-yl)-3-(propan-2-yl)-3H-imidazo[4,5-c]pyridin-4-yl]amino}-4-fluoro-2-methyl-N-(propan-2-yl)benzamide] |
